Drawing on patent US8835436B2 (priority 2009, dated 2014), this text covers IC50 for 19 molecules.

Structures can show the parent of a compound that is named as a salt.

The test deals with human recombinant 5-HT2C receptor (Homo sapiens (Human), UniProt P28335). To be noted: read-out: Binding affinity to serotonin receptor 5-HT2C: IC50.
Sequence of human recombinant 5-HT2C receptor (P28335 whole entry, looked up): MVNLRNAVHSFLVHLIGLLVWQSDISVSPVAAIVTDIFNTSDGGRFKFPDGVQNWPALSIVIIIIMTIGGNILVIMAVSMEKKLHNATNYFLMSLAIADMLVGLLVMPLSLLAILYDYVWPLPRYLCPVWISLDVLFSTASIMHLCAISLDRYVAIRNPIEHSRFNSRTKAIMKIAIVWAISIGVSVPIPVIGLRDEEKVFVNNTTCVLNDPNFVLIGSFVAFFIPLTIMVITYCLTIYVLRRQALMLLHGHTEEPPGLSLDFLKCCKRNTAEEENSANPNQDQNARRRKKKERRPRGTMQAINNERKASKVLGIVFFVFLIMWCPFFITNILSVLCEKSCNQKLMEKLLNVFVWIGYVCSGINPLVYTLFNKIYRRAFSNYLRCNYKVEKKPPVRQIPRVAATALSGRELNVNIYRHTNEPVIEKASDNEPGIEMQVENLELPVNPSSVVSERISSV
Procedure: Receptor binding affinities of the compounds for serotonin receptors were measured by the method described in the literature [Park W K et al., Pharmacol Biochem Behay.
The binding affinity (IC50) of a compound for the receptor was calculated by computerized nonlinear regression analysis (GraphPad Prism Program, San Diego, USA) using 7-8 varied concentrations of the compound run in duplicate tubes.
Nonspecific binding was determined using 100 uM mianserin. The incubations were performed for 60 min at 27° C., and these were terminated by rapid filtration through filtermate A glass fiber filter presoaked in 0.5% PEI.
A word on the IC50: it is the concentration that inhibits the measured activity by half. As to `CCCn1c(C)nc(C(=O)NCC(O)CN2CCN(c3cccc(C)c3C)CC2)c1C` (stereo not shown) [Example 96, N-(3-(4-(2,3-dimethylphenyl)piperazin-1-yl)-2-hydroxypropyl)-2,5-dimethyl-1-propyl-1H-imidazole-4-carboxamide dihydrochloride], the IC50 is greater than 10 µM. With `Cc1ccc(-n2c(C)nc(C(=O)NCCCN3CCN(c4cccc(C)c4C)CC3)c2C)cc1` [Example 147, N-(3-(4-(2,3-dimethylphenyl)piperazin-1-yl)propyl)-2,5-dimethyl-1-p-tolyl-1H-imidazole-4-carboxamide dihydrochloride], the IC50 amounted to 0.0781 µM. As to `CCc1nc(C(=O)NCCN2CCN(c3cccc(Cl)c3Cl)CC2)c(C)n1-c1ccccc1` [Example 13, N-(2-(4-(2,3-dichlorophenyl)piperazin-1-yl)ethyl)-2-ethyl-5-methyl-1-phenyl-1H-imidazole-4-carboxamide], the IC50 was 0.062 µM.

`Cc1nc(C(=O)NCCCN2CCN(c3cccc(Cl)c3Cl)CC2)c(C)n1-c1ccccc1` [Example 6, N-(3-(4-(2,3-dichlorophenyl)piperazin-1-yl)propyl)-2,5-dimethyl-1-phenyl-1H-imidazole-4-carboxamide]: the IC50 is 0.0121 µM. The figure for `COc1ccccc1-n1c(C)nc(C(=O)NCC(O)CN2CCN(c3cccc(C)c3C)CC2)c1C` (stereo not shown) [Example 100, N-(3-(4-(2,3-dimethylphenyl)piperazin-1-yl)-2-hydroxypropyl)-1-(2-methoxyphenyl)-2,5-dimethyl-1H-imidazole-4-carboxamide dihydrochloride] is 0.207 µM; for `Cc1ccc(-n2c(C)nc(C(=O)NCC(O)CN3CCN(c4cccc(C)c4C)CC3)c2C)cc1` (stereo not shown) [Example 148, N-(3-(4-(2,3-dimethylphenyl)piperazin-1-yl)-2-hydroxypropyl)-2,5-dimethyl-1-p-tolyl-1H-imidazole-4-carboxamide dihydrochloride] it is 0.705 µM; for `Cc1cccc(N2CCN(CC(O)CNC(=O)c3nc(C)n(CC(C)C)c3C)CC2)c1C` (stereo not shown) [Example 94, N-(3-(4-(2,3-dimethylphenyl)piperazin-1-yl)-2-hydroxypropyl)-1-isobutyl-2,5-dimethyl-1H-imidazole-4-carboxamide dihydrochloride] it is 0.595 µM.

On to `CCCc1nc(C(=O)NCCCN2CCN(c3cccc(Cl)c3Cl)CC2)c(C)n1-c1ccccc1` [Example 7, N-(3-(4-(2,3-dichlorophenyl)piperazin-1-yl)propyl)-5-methyl-1-phenyl-2-propyl-1H-imidazole-4-carboxamide dihydrochloride], for which the IC50 worked out at 0.189 µM. As to `Cc1cccc(N2CCN(CC(O)CNC(=O)c3nc(-c4ccccc4)n(-c4ccccc4)c3C)CC2)c1C` (stereo not shown) [Example 155, N-(3-(4-(2,3-dimethylphenyl)piperazin-1-yl)-2-hydroxypropyl)-5-methyl-1,2-diphenyl-1H-imidazole-4-carboxamide dihydrochloride], the concentration for half-maximal inhibition (IC50) is 0.525 µM.

As to `COc1ccc(-n2cc(C(=O)NCCCN3CCN(c4cccc(C)c4C)CC3)nc2-c2ccccc2)cc1` [Example 134, N-(3-(4-(2,3-dimethylphenyl)piperazin-1-yl)propyl)-1-(4-methoxyphenyl)-2-phenyl-1H-imidazole-4-carboxamide dihydrochloride], the IC50 turned out to be 0.101 µM. Take `Cc1cccc(N2CCN(CCNC(=O)c3nc(C)n(-c4ccc(F)cc4)c3C)CC2)c1C` [Example 114, N-(2-(4-(2,3-dimethylphenyl)piperazin-1-yl)ethyl)-1-(4-fluorophenyl)-2,5-dimethyl-1H-imidazole-4-carboxamide dihydrochloride]: the IC50 is 0.046 µM. For `Cc1cccc(N2CCN(CCNC(=O)c3nc(C)n(-c4ccc5c(c4)OCO5)c3C)CC2)c1C` [Example 115, 1-(benzo[d][1,3]dioxol-5-yl)-N-(2-(4-(2,3-dimethylphenyl)piperazin-1-yl)ethyl)-2,5-dimethyl-1H-imidazole-4-carboxamide dihydrochloride] the value was 0.027 µM; for `CCc1c(C(=O)NCCCN2CCN(c3cccc(Cl)c3Cl)CC2)nc(-c2ccc(Cl)cc2Cl)n1-c1ccc(Br)cc1` [Example 89, 1-(4-bromophenyl)-2-(2,4-dichlorophenyl)-N-(3-(4-(2,3-dichlorophenyl)piperazin-1-yl)propyl)-5-ethyl-1H-imidazole-4-carboxamide], 0.319 µM; for `CCCc1nc(C(=O)NCC(O)CN2CCN(c3cccc(C)c3C)CC2)cn1-c1ccccc1` (stereo not shown) [Example 121, N-(3-(4-(2,3-dimethylphenyl)piperazin-1-yl)-2-hydroxypropyl)-1-phenyl-2-propyl-1H-imidazole-4-carboxamide dihydrochloride], 0.635 µM. For the molecule `CCCc1nc(C(=O)NCC(O)CN2CCN(c3cccc(C)c3C)CC2)cn1-c1ccc(Cl)cc1` (stereo not shown) [Example 111, 1-(4-chlorophenyl)-N-(3-(4-(2,3-dimethylphenyl)piperazin-1-yl)-2-hydroxypropyl)-2-propyl-1H-imidazole-4-carboxamide dihydrochloride], the concentration for half-maximal inhibition (IC50) came to 0.661 µM. `CCCc1nc(C(=O)NCCCN2CCN(c3cccc(C)c3C)CC2)cn1-c1ccccc1` [Example 117, N-(3-(4-(2,3-dimethylphenyl)piperazin-1-yl)propyl)-1-phenyl-2-propyl-1H-imidazole-4-carboxamide dihydrochloride]: the IC50 stood at 0.103 µM. The figure for `Cc1cccc(N2CCN(CCCNC(=O)c3nc(C)n(CC(C)C)c3C)CC2)c1C` [Example 92, N-(3-(4-(2,3-dimethylphenyl)piperazin-1-yl)propyl)-1-isobutyl-2,5-dimethyl-1H-imidazole-4-carboxamide dihydrochloride] is 10.1 µM; for `COc1cc(OC)cc(-n2c(C)nc(C(=O)NCCN3CCN(c4cccc(C)c4C)CC3)c2C)c1` [Example 112, 1-(3,5-dimethoxyphenyl)-N-(2-(4-(2,3-dimethylphenyl)piperazin-1-yl)ethyl)-2,5-dimethyl-1H-imidazole-4-carboxamide dihydrochloride] it is 0.063 µM; for `COc1ccccc1-n1c(C)nc(C(=O)NCCCN2CCN(c3cccc(Cl)c3Cl)CC2)c1C` [Example 145, N-(3-(4-(2,3-dichlorophenyl)piperazin-1-yl)propyl)-1-(2-methoxyphenyl)-2,5-dimethyl-1H-imidazole-4-carboxamide dihydrochloride] it is 0.0255 µM.
